# Data reported in publication PMC4171606, “A novel copper(I) complex induces ER-stress-mediated apoptosis and sensitizes B-acute lymphoblastic leukemia cells to chemotherapeutic agents” (Oncotarget, 2014).
# What was measured:
# Resting healthy PBMC = experiment: MTT growth inhibition, 72 h; assay type: cell-based, human; conditions: mean ± SE
# [1] = tested on: human leukemia cell lines; experiment: MTT growth inhibition, panel of twelve leukemia cell lines, 72 h; assay type: cell-based; conditions: healthy lymphocytes vs B-leukemia cells
# Procedure: [Cu(thp)4][PF6] (CP) was evaluated for its growth inhibition activity on a panel of twelve different human leukemia cell lines (five B-acute lymphoblastic leukemia, three T-acute lymphoblastic leukemia, three acute myeloid leukemia and one chronic myeloid leukemia). Cells were treated for 72 h with CP and cell viability was evaluated by MTT test. […] This abnormal high expression of proteasomal proteins and mRNA seem to be correlated to the hyperproliferation of these cancer cells and to the sensitivity towards proteasome inhibitors.
# The human leukemia cell lines RS 4;11, SEM, REH, RCH-ACV, MHH-CALL2, Jurkat, CCRF-CEM, HSB2, HL-60, K562, THP-1, MV4;11 were purchased from the American Type Culture Collection. Cells were cultured in RPMI 1640 (Life Technologies, Italy) supplemented with 10% fetal bovine serum (FBS), glutamine (2 mM; Life Technologies, Italy), penicillin (100 U/ml; Life Technologies, Italy) and streptomycin (100 μg/ml; Life Technologies, Italy), and maintained at 37°C in a humidified atmosphere with 5% CO2. The cytotoxic activity of CP was determined using a standard 3-[4,5-dimethylthiazol-2-yl]-2,5-diphenyltetrazodium bromide (MTT) based colorimetric assay (Sigma-Aldrich, Italy). Briefly, cells were seeded at a density of 2×10^4 cells/well in 96-well microtiter plates. After 24 h, cells were exposed to the test compound. After different times, cell survival was determined by the addition of an MTT solution as previously described.
# [2] = tested on: caspase-9, caspase-3 and -7; experiment: Western blot, caspase-9, cleaved caspase-7, caspase-3 and PARP; assay type: cell-based, human; conditions: SEM and RS4;11, CP 2.5 μM
# Procedure: (§1) FIGURE 2 CP induces caspase-dependent apoptosis without mitochondria involvement (A) Assessment of mitochondrial membrane potential (ΔΨmt) after treatment of RS4;11 and SEM cells with CP (2.5 μM) for the indicated times. Cells were stained with the fluorescent probe JC-1. Data are represented as mean ± S.E.M. of three independent experiments. (B) Flow cytometric analysis of RS4;11 and SEM cells treated with CP (2.5 μM) for 24 h showing cytochrome c labeled with a monoclonal antibody conjugated to FITC. Representative image of three experiments with similar results. (C) Cells were incubated with CP 2.5 μM and 5 μM in the presence or absence of the pan-caspase inhibitor z-VAD.fmk (100 μM). Cell viability was determined after 48 h by MTT assay. Data are represented as mean ± S.E.M. of three independent experiments performed in triplicate. *p<0.01 vs CP alone. (D) Western blot analysis of Bcl-2, cleaved caspase-12, caspase-9, cleaved caspase-7, caspase-3 and PARP after treatment of SEM and RS4;11 cells with CP (2.5 μM) for the indicated times. To confirm equal protein loading, each membrane was stripped and reprobed with anti-β-actin antibody. […]
# (§2) Cells were treated with CP and, after different times, were collected, centrifuged and washed with ice cold phosphate-buffered saline (PBS). […] The protein concentration in the supernatant was determined using the BCA protein assay (Pierce, Italy). […]
# GRP78 = experiment: Western blot, ER stress marker GRP78; assay type: cell-based, human
# Procedure: (§3) Moreover we found an increase in CHOP expression starting from 3 h of CP treatment. […] Whilst GRP78, due to its chaperon activity, exerts a protective function, CHOP promotes ER-stress cell death, thus the rapid activation of pro-death signals and the late activation of pro-survival chaperone GRP78 could explain the commitment toward apoptosis induced by CP. Moreover, in unresolvable stress conditions, an increased CHOP expression has been correlated to the induction of the expression of many apoptotic genes and to the down-regulation prosurvival genes, such as Bcl-2 [30].
# (§4) FIGURE 4 CP induces ER stress Western Blot analysis showing expression of GRP78 and CHOP in SEM (A) and in RS4;11 (B) cells. Cells were treated with CP 2.5 μM for the indicated times. (C) PCR analysis showing the induction of XBP1 splicing in SEM and RS4;11 cells. Cells were treated with CP (2.5 μM) or Tunicamycin (2 μg/ml) as positive control for 12 h.
# (§5) Cells were treated with CP and, after different times, were collected, centrifuged and washed with ice cold phosphate-buffered saline (PBS). The pellet was then resuspended in lysis buffer as described. The protein concentration in the supernatant was determined using the BCA protein assay (Pierce, Italy). […]
# CHOP = experiment: Western blot, ER stress marker CHOP; assay type: cell-based, human; conditions: SEM and RS4;11, CP 2.5 μM
# Procedure: as §3, §4, §5
# XBP1 = experiment: PCR analysis of XBP1 splicing; assay type: cell-based, human; conditions: CP 2.5 μM, 12 h
# Procedure: as §3, §4
# Cells were treated with CP and Tunicamycin as positive control, collected, centrifuged and washed with PBS. Total RNA was extracted from cells using Trizol (Life Technologies, Italy) as previously described. Primer pair used to amplified XBP1 isoforms: forward 5'-[…]-3', reverse 5'-[…]-3'. To separate isoforms, PCR products were run in 5% agarose gel.
# Bcl-2 = experiment: Western blot, Bcl-2; assay type: cell-based, human; conditions: SEM and RS4;11, CP 2.5 μM
# Procedure: as §1, §2
smiles,measurement,setting,value
"F[P-](F)(F)(F)(F)F.OCP(CO)CO.OCP(CO)CO.OCP(CO)CO.OCP(CO)CO.[Cu+] [CP, [Cu(thp)4][PF6]]",GI50,Resting healthy PBMC,22.7 ± 2.9 µM
same,cytotoxic activity on healthy lymphocytes lower than B-leukemia cells,[1],5-10 fold
same,onset of caspase-9 activation and cleavage of caspase-3 and -7,[2],≥ 6 h
same,time of remarkable increase of GRP78 expression,"GRP78; RS4;11, CP 2.5 μM",12 h
same,time of remarkable increase of GRP78 expression,"GRP78; SEM, CP 2.5 μM",6 h
same,onset of increase in CHOP expression,CHOP,≥ 3 h
same,XBP1 splicing,XBP1,induced XBP1 splicing in both cell lines
same,time at which decrease of Bcl-2 expression is detectable,Bcl-2,≥ 3 h
